Here are results for 20 compounds from US8778872B2 (priority 2010, dated 2014).

Read-outs that look alike come from different tables or passages of the source. Where a SMILES comes first, the peptide text is derived from it. Where no end group is shown, it is not given here. Side-chain parts run from the residue outwards. [ ]: non-standard residue; d: D form. Ac6c = NC1(C(=O)O)CCCCC1; Ac3c = NC1(C(=O)O)CC1; Aib = CC(C)(N)C(=O)O; PEG40k = 40 kDa PEG; Sar = CNCC(=O)O

Data set [1] is described as follows: Dipeptide cleavage half time in PBS on model hexapeptide (HPLC / LC-MS). To be noted: for half-life: buffer; for Relative peak area(%), HPLC peak a / Relative peak area(%), HPLC peak b: PBS; for Relative peak area(%), HPLC peak a: peak a MW 702; for Relative peak area(%), HPLC peak b: peak b MW 902.
Description: (§1) The flow rate was 1 mL/min. Solvent A contained 0.1% TFA in distilled water, and solvent B contained 0.1% TFA in 90% CH3CN. A linear gradient was employed (0% to 30% B in 10 minutes). The data were collected and analyzed using Peak Simple Chromatography software.
(§2) The initial rates of cleavage were used to measure the rate constant for the dissociation of the respective prodrugs. […] The first order dissociation rate constants of the prodrugs were determined by plotting the logarithm of the concentration of the prodrug at various time intervals. The slope of this plot gives the rate constant ‘k’.
The conditions of data set [2]: buffer.
Description: as §1, §2
The target of data set [3] is T1, GLP-1 receptor (Homo sapiens, UniProt P43220).
T1 construct: expressed in transfected cells; host or cells: HEK293
T1 sequence (P43220 24-463, species assumed): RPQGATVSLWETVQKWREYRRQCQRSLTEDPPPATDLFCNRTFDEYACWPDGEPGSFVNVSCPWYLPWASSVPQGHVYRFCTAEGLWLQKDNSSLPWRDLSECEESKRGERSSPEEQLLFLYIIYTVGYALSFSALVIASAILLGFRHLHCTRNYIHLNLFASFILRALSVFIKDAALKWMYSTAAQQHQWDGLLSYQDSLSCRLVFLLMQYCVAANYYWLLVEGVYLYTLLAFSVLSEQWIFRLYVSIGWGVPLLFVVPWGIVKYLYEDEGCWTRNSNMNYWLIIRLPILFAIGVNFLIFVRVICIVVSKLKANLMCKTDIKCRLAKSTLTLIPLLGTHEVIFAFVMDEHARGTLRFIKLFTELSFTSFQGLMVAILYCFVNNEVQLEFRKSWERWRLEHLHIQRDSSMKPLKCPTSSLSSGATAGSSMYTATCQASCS
Kind of data set: Luciferase-based reporter gene assay for cAMP detection, HEK293 cells co-transfected with GLP-1 receptor (prodrug samples pre-incubated in PBS or plasma). Type of data set: cell-based. Background: Reporter assays use an easily measured gene product as a stand-in for the process of interest.
Description: To explore the possible formation of DKP and simultaneous regeneration of the parent drug, 40 k PEG-Aib^−1-P^0,C^24GLP(7-36) was incubated in PBS buffer at 37° C. for approximately 10 days.

By half-life is commonly meant the time needed for the level to fall by half in the phase considered. As to `C[C@@H](O)[C@H](NC(=O)CNC(=O)[C@H](CCCNC(=N)N)NC(=O)[C@H](CO)NC(=O)[C@H](Cc1c[nH]cn1)NC(=O)[C@@H](N)Cc1ccc(NC(=O)[C@@H]2CCCN2C(=O)[C@H](N)CCCCN)cc1)C(=O)N[C@@H](Cc1ccccc1)C(N)=O` [Compounds 12], the half-life in data set [1] was 11 h.
The same measure, in the same setting: the same measure for `C[C@@H](O)[C@H](NC(=O)CNC(=O)[C@H](CCCNC(=N)N)NC(=O)[C@H](CO)NC(=O)[C@H](Cc1c[nH]cn1)NC(=O)[C@@H](N)Cc1ccc(NC(=O)[C@@H]2CCCN2C(=O)CO)cc1)C(=O)N[C@@H](Cc1ccccc1)C(N)=O` [Compounds 6]: 603 h.
The same measure, in the same setting: to `CNCC(=O)N1CCC[C@H]1C(=O)Nc1ccc(C[C@H](N)C(=O)N[C@@H](Cc2c[nH]cn2)C(=O)N[C@@H](CO)C(=O)N[C@@H](CCCNC(=N)N)C(=O)NCC(=O)N[C@H](C(=O)N[C@@H](Cc2ccccc2)C(N)=O)[C@@H](C)O)cc1` [Compounds 14] belongs approximately 1000 h; to `C[C@@H](O)[C@H](NC(=O)CNC(=O)[C@H](CCCNC(=N)N)NC(=O)[C@H](CO)NC(=O)[C@H](Cc1c[nH]cn1)NC(=O)[C@@H](N)Cc1ccc(NC(=O)[C@@H]2CCCN2C(=O)[C@@H](N)CCC(=O)O)cc1)C(=O)N[C@@H](Cc1ccccc1)C(N)=O` [Compounds 13], 85 h.
For the compound `C[C@@H](O)[C@H](NC(=O)CNC(=O)[C@H](CCCNC(=N)N)NC(=O)[C@H](CO)NC(=O)[C@H](Cc1c[nH]cn1)NC(=O)[C@@H](N)Cc1ccc(NC(=O)[C@@H]2CCCN2C(=O)[C@@H](N)C(C)(C)C)cc1)C(=O)N[C@@H](Cc1ccccc1)C(N)=O` [Compounds 8], in data set [2], the half-life is 200 h.
In data set [1], `C[C@@H](O)[C@H](NC(=O)CNC(=O)[C@H](CCCNC(=N)N)NC(=O)[C@H](CO)NC(=O)[C@H](Cc1c[nH]cn1)NC(=O)[C@@H](N)Cc1ccc(NC(=O)[C@@H]2CCCN2C(=O)[C@@H](N)Cc2ccccc2)cc1)C(=O)N[C@@H](Cc1ccccc1)C(N)=O` [Compounds 1] gave a half-life of 58 h.
“40 kPEG-Aib^−1-P^0,C^24GLP(7-36): Aib^−1-P^0,C^24GLP(7-36) pegylated by maleimido-functioned 40 k Da PEG on the SH group of 24-Cys ([Aib]PHAEGTFTSDVSSYLEGQAAKEFIC([maleimide-PEG40k])WLVKGR)”: the EC50%/STD ratio in data set [3] (prodrug incubated in PBS at 37° C. for 30 h) worked out at 17.31%; in data set [3] (prodrug incubated in PBS at 37° C. for 54 h), 27.74%; in data set [3] (prodrug incubated in PBS at 37° C. for 240 h), 66.49%; in data set [3] (prodrug incubated in PBS at 37° C. for […]), 55.90%.
Take `C[C@@H](O)[C@H](NC(=O)CNC(=O)[C@H](CCCNC(=N)N)NC(=O)[C@H](CO)NC(=O)[C@H](Cc1c[nH]cn1)NC(=O)CN(C)C(=O)[C@@H](N)CCCCN)C(=O)N[C@@H](Cc1ccccc1)C(N)=O` [A peptide, lys-sar-HSRGTF-NH2] (H-K[Sar]HSRGTF-NH2; N-terminus assumed): the “Relative peak area(%), HPLC peak a” value in data set [1] (5 h) came to 26.5%; in data set [1] (8 h), 28.9%; in data set [1] (24 h), 28.8%; in data set [1] (31 h) it was 77.7%; in data set [1] (47 h) it was 90.0%. Further, the “Relative peak area(%), HPLC peak b” value in data set [1] (5 h) is 73.5%; in data set [1] (8 h), 71.1%; in data set [1] (24 h) it was 71.2%; in data set [1] (31 h) it was 22.3%; in data set [1] (47 h), 10.0%.
In data set [1], `C[C@@H](O)[C@H](NC(=O)CNC(=O)[C@H](CCCNC(=N)N)NC(=O)[C@H](CO)NC(=O)[C@H](Cc1c[nH]cn1)NC(=O)[C@@H](N)Cc1ccc(NC(=O)[C@H]2CCCN2C(=O)[C@H](N)Cc2ccccc2)cc1)C(=O)N[C@@H](Cc1ccccc1)C(N)=O` [Compounds 4] had a half-life of 39 h.
Still for that read-out and setting: to `C[C@@H](O)[C@H](NC(=O)CNC(=O)[C@H](CCCNC(=N)N)NC(=O)[C@H](CO)NC(=O)[C@H](Cc1c[nH]cn1)NC(=O)[C@@H](N)Cc1ccc(NC(=O)[C@@H]2CCCN2C(=O)[C@@H](N)CCCCN)cc1)C(=O)N[C@@H](Cc1ccccc1)C(N)=O` [Compounds 11] belongs 33 h; to `CC(C)C[C@H](N)C(=O)N1CCC[C@H]1C(=O)Nc1ccc(C[C@H](N)C(=O)N[C@@H](Cc2c[nH]cn2)C(=O)N[C@@H](CO)C(=O)N[C@@H](CCCNC(=N)N)C(=O)NCC(=O)N[C@H](C(=O)N[C@@H](Cc2ccccc2)C(N)=O)[C@@H](C)O)cc1` [Compounds 7], 62 h.
For `C[C@@H](O)[C@H](NC(=O)CNC(=O)[C@H](CCCNC(=N)N)NC(=O)[C@H](CO)NC(=O)[C@H](Cc1c[nH]cn1)NC(=O)[C@@H](N)Cc1ccc(NC(=O)[C@@H]2CCCN2C(=O)C(C)(C)O)cc1)C(=O)N[C@@H](Cc1ccccc1)C(N)=O` [Compounds 16], the half-life in data set [2] was 33 h.
Regarding `C[C@@H](O)[C@H](NC(=O)CNC(=O)[C@H](CCCNC(=N)N)NC(=O)[C@H](CO)NC(=O)[C@H](Cc1c[nH]cn1)NC(=O)[C@@H](N)Cc1ccc(NC(=O)[C@@H]2CCCN2C(=O)[C@H](N)Cc2ccccc2)cc1)C(=O)N[C@@H](Cc1ccccc1)C(N)=O` [Compounds 3], the half-life in data set [1] was 20 h.
Consider `C[C@@H](O)[C@H](NC(=O)CNC(=O)[C@H](CCCNC(=N)N)NC(=O)[C@H](CO)NC(=O)[C@H](Cc1c[nH]cn1)NC(=O)[C@@H](N)Cc1ccc(NC(=O)[C@@H]2CCCN2C(=O)C(C)(C)N)cc1)C(=O)N[C@@H](Cc1ccccc1)C(N)=O` [Compounds 15], for which, in data set [2], the half-life came out at 1.15 h.
Regarding `C[C@@H](O)[C@H](NC(=O)CNC(=O)[C@H](CCCNC(=N)N)NC(=O)[C@H](CO)NC(=O)[C@H](Cc1c[nH]cn1)NC(=O)[C@@H](N)Cc1ccc(NC(=O)[C@@H]2CCCN2C(=O)[C@@H]2CCCN2)cc1)C(=O)N[C@@H](Cc1ccccc1)C(N)=O` [Compounds 10], the half-life in data set [1] is 97 h.
For the compound `C[C@@H](O)[C@H](NC(=O)CNC(=O)[C@H](CCCNC(=N)N)NC(=O)[C@H](CO)NC(=O)[C@H](Cc1c[nH]cn1)NC(=O)[C@@H]1CCCN1C(=O)C1(N)CC1)C(=O)N[C@@H](Cc1ccccc1)C(N)=O` [Peptide 18] (H-[Ac3c]PHSRGTF-NH2), the half-life in data set [1] is 10 h.
Still for that read-out and setting: to `C[C@@H](O)[C@H](NC(=O)CNC(=O)[C@H](CCCNC(=N)N)NC(=O)[C@H](CO)NC(=O)[C@H](Cc1c[nH]cn1)NC(=O)[C@@H](N)Cc1ccc(NC(=O)[C@@H]2CCCN2C(=O)CN)cc1)C(=O)N[C@@H](Cc1ccccc1)C(N)=O` [Compounds 5] belongs 72 h; to `C[C@@H](O)[C@H](NC(=O)CNC(=O)[C@H](CCCNC(=N)N)NC(=O)[C@H](CO)NC(=O)[C@H](Cc1c[nH]cn1)NC(=O)[C@@H]1CCCN1C(=O)C1(N)CCCCC1)C(=O)N[C@@H](Cc1ccccc1)C(N)=O` [Peptide 17] (H-[Ac6c]PHSRGTF-NH2), 5 h; to `C[C@@H](O)[C@H](NC(=O)CNC(=O)[C@H](CCCNC(=N)N)NC(=O)[C@H](CO)NC(=O)[C@H](Cc1c[nH]cn1)NC(=O)[C@@H](N)Cc1ccc(NC(=O)[C@@H]2CCCN2C(=O)[C@@H](N)CO)cc1)C(=O)N[C@@H](Cc1ccccc1)C(N)=O` [Compounds 9], 34 h.
`C[C@@H](O)[C@H](NC(=O)CNC(=O)[C@H](CCCNC(=N)N)NC(=O)[C@H](CO)NC(=O)[C@H](Cc1c[nH]cn1)NC(=O)[C@@H](N)Cc1ccc(NC(=O)[C@@H]2CCCN2C(=O)C2(N)CCCCC2)cc1)C(=O)N[C@@H](Cc1ccccc1)C(N)=O` [Compounds 17]: the half-life in data set [2] turned out to be 0.1 h.
